Measurements as given in ChEMBL document CHEMBL5608241, “Discovery of Novel Non-nucleoside DOT1LR231Q Inhibitors with Improved Pharmacokinetic Properties and Anti-lung Cancer Efficacy” (J Med Chem, 2024).
The source made the active and inactive calls. No cut-off for these calls is given here.

Tests used:
[1] = MRT (0 to infinity) in male Sprague-Dawley rat at 20 mg/kg, iv measured after 24 hrs by LC-MS/MS analysis; format: ADME, organism-based; settings: in vivo
[2] = target: Dual specificity mitogen-activated protein kinase kinase; MEK1/2 (Homo sapiens) (UniProt P36507+Q02750); assay: Inhibition of MEK phosphorylation in human NCI-H460 cells exogenously expressing DOT1L R231Q mutant (unknown origin) (1 to 416 residues) at 5 uM by Western blot analysis; format: cell-based
Dual specificity mitogen-activated protein kinase kinase; MEK1/2 (Homo sapiens), sequence (P36507 whole entry, looked up, the tested form may be a part): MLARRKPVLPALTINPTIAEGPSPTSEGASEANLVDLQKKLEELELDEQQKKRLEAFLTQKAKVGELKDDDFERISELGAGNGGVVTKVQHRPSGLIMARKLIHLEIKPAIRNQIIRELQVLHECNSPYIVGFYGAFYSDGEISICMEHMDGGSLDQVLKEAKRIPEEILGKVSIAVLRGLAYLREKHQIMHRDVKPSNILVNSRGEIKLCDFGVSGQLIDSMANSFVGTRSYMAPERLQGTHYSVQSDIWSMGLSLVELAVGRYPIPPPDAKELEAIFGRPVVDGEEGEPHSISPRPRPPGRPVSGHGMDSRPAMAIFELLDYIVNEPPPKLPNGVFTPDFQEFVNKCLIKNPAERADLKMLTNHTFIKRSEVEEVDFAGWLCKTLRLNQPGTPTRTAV
Dual specificity mitogen-activated protein kinase kinase; MEK1/2 (Homo sapiens), sequence (Q02750 whole entry, looked up, the tested form may be a part): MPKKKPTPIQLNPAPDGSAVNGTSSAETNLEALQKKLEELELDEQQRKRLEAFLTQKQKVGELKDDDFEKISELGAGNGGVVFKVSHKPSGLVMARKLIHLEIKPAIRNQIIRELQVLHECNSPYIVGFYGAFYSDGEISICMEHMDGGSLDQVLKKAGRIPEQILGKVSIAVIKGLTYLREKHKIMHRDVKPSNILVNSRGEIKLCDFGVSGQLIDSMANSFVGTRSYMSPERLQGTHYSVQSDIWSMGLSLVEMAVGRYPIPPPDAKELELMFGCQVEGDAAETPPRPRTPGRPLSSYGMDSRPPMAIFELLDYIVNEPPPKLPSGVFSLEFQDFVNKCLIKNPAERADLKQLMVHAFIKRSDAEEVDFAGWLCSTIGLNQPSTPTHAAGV

In the case of CC(C)(C)c1ccc(NC(=O)NCCCN(CCCN2CCOCC2)CC2(O)CCN(c3nc(Cl)nc4sccc34)C2)cc1 (configuration not stated), the MRT inf [1] is reported as 4.41 h and the inhibition [2] is reported as “Active”.
